Consider one compound from patent US20090220448A1, “HAIR CARE COMPOSITIONS AND METHODS FOR INCREASING HAIR DIAMETER AND FOR IMMEDIATE FULLER/THICKER HAIR APPEARANCE” (priority 2008, published 2009).

The subject of this assay is Primary human dermal papilla cells. The experiment in a line: Synergy study: survival of metabolically stressed dermal papilla cells (ATP, Cell Titer Glo). It counts as cell-based. To be noted: 0.05%, 48 hours metabolic stress in reduced media, control 100% water. The procedure: The dermal papilla, in normal human hair, is the control center for hair diameter. Increasing survival of dermal papilla cells in situ leads to increased hair diameter. Accordingly, an increase in survival of dermal papilla cells correlates with an increase in hair diameter.
Primary human dermal papilla cells were metabolically stressed for 48 hours in reduced standard tissue culture media. During this period of stress the cells were treated with the mixtures or individual ingredients below. After 48 hr the metabolic activity of the cells was measured by the amount of ATP using the Cell Titer Glo™ kit (Promega).
Background: ATP-based viability assays read luminescence as a measure of living cells.

Consider `Cn1c(=O)c2c(ncn2C)n(C)c1=O` [Caffeine], for which the “Survival rate: % Change from Control” value is reported as “+41%”.
